Assay results as given in US20080081333A1, “METHYLATED PROMOTERS AS BIOMARKERS OF COLON CANCER” (UNIVERSITY OF MARYLAND, BALTIMORE, priority 2006, published 2008).
Entries after “also recorded” stand apart in the source; their conditions may differ.

Tests used:
HT29 and HCT116 = assay: cDNA microarray of colon cancer cell lines treated with 5-aza-dC versus untreated cells; format: cell-based, human; conditions: in at least one of HT29, HCT116; 10 μM 84 hours or 1 μM 24 hours then 60 hours drug-free; log ratio greater than 0.75 (1.65-fold)
Description: (§1) Next, a cDNA microarray analysis of two colon cancer cell lines was performed, comparing cells treated with 5-aza-dC and untreated cells. Briefly, the colon cancer cell lines HT29 and HCT116 were seeded at a density of 4×10^5 cells per 75 cm^2 culture flask and incubated for 24 hours in growth media. The cells were then treated with 5-aza-dC in either one of the following conditions: a) 10 μM 5-aza-dC for 84 hours or b) 1 μM 5-aza-dC for 24 hours followed by 60 hours of 5-aza-dC-free growth. These two 5-aza-dC treatment regimens were employed to obtain expression data under diverse cellular conditions: the former regimen focused on maximum DNA demethylation, while the latter regimen focused on moderate DNA demethylation to minimize damage to cell viability. […] Genes with very low expression levels in post-treatment specimens were eliminated from further analyses. The cut-off criterion was defined as median signal intensity less than median background intensity plus 1 standard deviation.

HCT116 = assay: quantitative MSP and real-time RT-PCR with and without 5-aza-dC treatment; format: cell-based, human; conditions: HCT116, after 5-aza-dC treatment
Description: as §1
(§2) Tumor samples were snap frozen on dry ice and stored at −80° C. After thawing, DNA was extracted from samples and treated with bisulfite prior to MSP. Briefly, DNA was extracted from all samples and treated with bisulfite to convert unmethylated cytosines to uracils prior to methylation-specific PCR (MSP) as described previously in Mori, Y., et al. Cancer Res. 64:2434-38 (2004), which is incorporated by reference. DNA methylation status and levels of the 4 candidate markers were determined with real-time quantitative MSP using the ABI 7900 HT Sequence Detection (Taqman) System, as described previously in Sato F., et al., Cancer Res. 62:6820-22 (2002), which is incorporated by reference. Primers and probes for quantitative MSP of (SHP-1, DcR1, RARβ, and DcR2) are disclosed in Takahashi, T. et al, Int'l J. Cancer, 118(4): 924-931 (2005), which is incorporated by reference.
(§3) DNA methylation status and levels of 5 genes were determined with real-time quantitative MSP using the ABI 7900 HT Sequence Detection (Taqman) System, as described previously in Sato F., et al., Cancer Res. 62:6820-22 (2002), which is incorporated by reference. Primers and probes for quantitative MSP of ENG, MAL, CAV1, TAC1, SST, NELL1 and AKAP12 are below in Tables III and IV.
(§4) A normalized methylation value (NMV) reflecting the percentage of DNA methylated for the gene of interest (GoI), was defined as follows: NMV=(GoI-S/GoI-FM)/(ACTB-S/ACTB-FM)*100, where GoI-S and GoI-FM represented GoI methylation levels in the Sample and Fully Methylated DNAs, respectively, while ACTB-S and ACTB-FM corresponds to β-Actin in the sample and Fully Methylated (FM) DNAs, respectively.
(§5) Increased SST and TAC1 methylation levels was also observed in cancers relative to matched normal colonic mucosae from the resection margins (FIG. 2). […] Furthermore, we examined the correlation between promoter methylation and mRNA expression levels of SST and TAC1. For this purpose, we analyzed colon cancer cell lines with and without 5-aza-dC treatment using quantitative real-time PCR. mRNA upregulation occurred for both SST and TAC1 after promoter DNA demethylation by 5-aza-dC treatment (FIG. 4).

HT29 = assay: as above; format: cell-based, human; conditions: HT29, after 5-aza-dC treatment
Description: as §1, §2, §3, §4, §5

HCT116 and HT29 = assay: quantitative MSP and real-time RT-PCR with and without 5-aza-dC treatment, five further genes; format: cell-based, human; conditions: all five genes, in a colon cancer cell line, after 5-aza-dC treatment
Description: Next, a cDNA microarray analysis of two colon cancer cell lines was performed, comparing cells treated with 5-aza-dC and untreated cells. Briefly, the colon cancer cell lines HT29 and HCT116 were seeded at a density of 4×10^5 cells per 75 cm^2 culture flask and incubated for 24 hours in growth media. The cells were then treated with 5-aza-dC in either one of the following conditions: a) 10 μM 5-aza-dC for 84 hours or b) 1 μM 5-aza-dC for 24 hours followed by 60 hours of 5-aza-dC-free growth. […]
Tumor samples were snap frozen on dry ice and stored at −80° C. […] DNA methylation status and levels of the 4 candidate markers were determined with real-time quantitative MSP using the ABI 7900 HT Sequence Detection (Taqman) System, as described previously in Sato F., et al., Cancer Res. 62:6820-22 (2002), which is incorporated by reference. Primers and probes for quantitative MSP of (SHP-1, DcR1, RARβ, and DcR2) are disclosed in Takahashi, T. et al, Int'l J. Cancer, 118(4): 924-931 (2005), which is incorporated by reference.
as §3, with “IV. […]” for “IV.”

KYSE220 = assay: 5-Aza-dC treatment of esophageal cancer cell line, qMSP and qRT-PCR; format: cell-based; conditions: 1 μl of 5 mM 5-Aza-dC per ml of cells every 24 hours for 6 days
Description: (§6) Samples and cell lines were treated as in Example 1. Briefly, extracted DNA was treated with bisulfite to convert unmethylated cytosines to uracils prior to MSP. Promoter methylation levels of TAC1 were determined using qMSP with the ABI 7700 Sequence Detection (Taqman) System, using primers and probes described. A normalized methylation value (NMV), reflecting the percentage of DNA methylated for the gene of interest (GoI), was defined as follows: NMV=(GoI-S/GoI-FM)/(ACTB-S/ACTB-FM), where GoI-S and GoI-FM represent GoI methylation levels in the sample and fully methylated DNAs, respectively, while ACTB-S and ACTB-FM correspond to β-Actin in the sample and fully methylated DNAs, respectively.
(§7) To determine TAC1 mRNA levels, one-step real-time quantitative RT-PCR was performed using a Qiagen QuantiTect Probe RT-PCR Kit (Qiagen, Hilden, Germany) and the ABI 7700 Sequence Detection (Taqman) System. Primers and probes are described herein. β-Actin was used to normalize data. A standard curve was generated using serial dilutions of qPCR Reference Total RNA (Clontech, Mountainview, Calif.). The normalized mRNA value (NRV) was calculated according to the following formula for relative expression of target mRNA: Expression index=(TarS/TarC)/(ACTB-S/ACTB-C, where TarS and TarC represent levels of mRNA expression for the target gene in the sample and control mRNAs, respectively, whereas ACTB-S and ACTB-C correspond to amplified ACTB levels in the sample and control mRNAs, respectively.
as §7, with “SST” for “TAC1”, “were the same as previously reported. 12” for “are described herein.”, “for normalization of” for “to normalize”, “NRV=(TarS/TarC)/(ACTB-S/ACTB-C),” for “Expression index=(TarS/TarC)/(ACTB-S/ACTB-C,”, “in” for “in the”
To determine whether TAC1 inactivation was due to promoter hypermethylation in esophageal cancer, 2 esophageal cancer cell lines (KYSE220 and BIC) were subjected to 5-Aza-dC (Sigma, St. Louis, Mo.) treatment. Briefly, 1×10^5 cells/ml were seeded onto a 100 mm dish and grown for 24 h. Then, 1 μl of 5 mM 5-Aza-dC per ml of cells was added every 24 hours for 6 days. DNAs and RNAs were harvested on day 6. […]

BIC = assay: as above; format: cell-based
Description: as §6, §7
(§8) To determine whether TAC1 inactivation was due to promoter hypermethylation in esophageal cancer, 2 esophageal cancer cell lines (KYSE220 and BIC) were subjected to 5-Aza-dC (Sigma, St. Louis, Mo.) treatment. Briefly, 1×10^5 cells/ml were seeded onto a 100 mm dish and grown for 24 h. Then, 1 μl of 5 mM 5-Aza-dC per ml of cells was added every 24 hours for 6 days. DNAs and RNAs were harvested on day 6.
(§9) Samples were treated as in Examples 1 and 2. Briefly, to determine AKAP12 mRNA levels, one-step real-time quantitative RT-PCR was performed using a Qiagen QuantiTect Probe RT-PCR Kit (Qiagen, Hilden, Germany) and the ABI 7700 Sequence Detection System (Applied Biosystems, Foster City, Calif.). Primers and probe for AKAP12 were as follows: […]
(§10) β-actin was used for normalization of data. Primers and probe for β-actin were the same as previously reported. […] Normalized mRNA value (NRV) was calculated according to the following formula for relative expression of target mRNA: NRV=(TarS/TarC)/(ACTB-S/A CTB-C, where TarS and TarC represent levels of mRNA expression for the target gene in sample and control mRNAs, respectively, while ACTB-S and ACTB-C correspond to amplified ACTB levels in sample and control mRNAs, respectively.

OE33 = assay: as above; format: cell-based
Description: as §6
as §7, with “SST” for “TAC1”, “were the same as previously reported. 12” for “are described herein.”, “for normalization of” for “to normalize”, “NRV=(TarS/TarC)/(ACTB-S/ACTB-C),” for “Expression index=(TarS/TarC)/(ACTB-S/ACTB-C,”, “in” for “in the”
as §8, with “SST” for “TAC1”, “OE33)” for “BIC)”, “DNA” for “DNAs”, “RNA” for “RNAs”
as §9, §10

[1] = 1 μl of 5 mM 5-Aza-dC per ml of cells every 24 hours for 6 days
[2] = OE33, 1 μl of 5 mM 5-Aza-dC per ml of cells every 24 hours for 6 days

Nc1ncn([C@H]2C[C@H](O)[C@@H](CO)O2)c(=O)n1 [5-aza-dC]
genes upregulated after 5-aza-dC treatment (HT29 and HCT116): 861 genes | SST mRNA expression index (EI) (HCT116): upregulation | SST promoter methylation index (MI) (HCT116): demethylation; also recorded: decreased | TAC1 mRNA expression index (EI) (HCT116): upregulation | TAC1 promoter methylation index (MI) (HCT116): demethylation; also recorded: decreased | SST mRNA expression index (EI) (HT29): upregulation | SST promoter methylation index (MI) (HT29): demethylation; also recorded: decreased | TAC1 mRNA expression index (EI) (HT29): upregulation | TAC1 promoter methylation index (MI) (HT29): demethylation; also recorded: decreased | mRNA of NELL1, CAV1, AKAP12, ENG and MAL (HCT116 and HT29): increased; also recorded: upregulation | promoter region DNA methylation of NELL1, CAV1, AKAP12, ENG and MAL (HCT116 and HT29): demethylation; also recorded: decreased | NMV of SST (KYSE220): diminished | NMV of TAC1 (KYSE220): diminished | mRNA level (NRV) of SST (KYSE220): increased | mRNA level (NRV) of TAC1 (KYSE220): increased | NMV of TAC1 (BIC; [1]): diminished | mRNA level (NRV) of TAC1 (BIC; [1]): increased | NMV of AKAP12 (BIC; after 5-Aza-dC treatment): diminished | mRNA level (NRV) of AKAP12 (BIC; after 5-Aza-dC treatment): increased | NMV of AKAP12 (OE33; OE33, after 5-Aza-dC treatment): diminished | mRNA level (NRV) of AKAP12 (OE33; OE33, after 5-Aza-dC treatment): increased | NMV of SST (OE33; [2]): diminished | mRNA level (NRV) of SST (OE33; [2]): increased
